Measured values reported in patent publication US6500842B1, “8-hydroxy-7-substituted quinolines as anti-viral agents” (Pharmacia & Upjohn Company, priority 1996, dated 2002).
pIC50: −log10 of the molar value. Where “and” joins values, the source holds several entries; their conditions need not be identical. Identical values can stand only once. Like-named read-outs stand apart in the source and are kept apart here.

What was measured:
HCMV = experiment: CMV antiviral assay, cell culture based ELISA in human foreskin fibroblast cells; set-up: species or system human cytomegalovirus (HCMV)
Protocol: Compounds are tested for direct antiviral activity against HCMV using a cell culture based assay. An ELISA (enzyme linked immunosorbant assay) format is used as described in W. A. Tatarowicz, N. S. Lurain and K. D. Thompson, J. Virol. Meth., 35:207-215 (1991). Human foreskin fibroblast cells are infected with HCMV at a multiplicity of 0.025 plaque forming units per microtiter plate well for a period of 90 minutes. The virus inocula is removed and a suspension of test compound prepared in tissue culture media is added for a period of 4 days. The growth media is aspirated and replaced with 95% ethanol to allow fixation of virus infected cultures. The ethanol is removed and the wells are washed twice with saline. A solution of 2% dry fat milk, 1% bovine sera albumin prepared in saline is added to wells to allow for non-specific binding of protein material to plastic surfaces for 1 hr. Murine monoclonal antibody prepared in saline directed against the late (65 KD) matrix protein of HCMV is added to test wells for 1 hr. The wells are washed twice and antibody, conjugated with the enzyme horse radish peroxidase, with specificity against murine IgG is added to test wells for 1 hr. Test wells are washed three times with saline. A solution of o-phenylene diamine, a substrate for horse radish peroxidase is added for 15 minutes at which time enzymatic conversion occurs indicating reactivity of the enzyme with its substrate. This conversion is evident as a color reaction which was spectrophoretically monitored at 490 nm. The intensity of the color indirectly reflects the presence of antibody directed against the viral 65 KD matrix antigen. The presence of the viral matrix antigen refects the amount of HCMV replication. Thus, test wells, in which little viral replication has occurred, would have little or no antibody binding and are present with low levels of color. Non-infected wells serve as the assay background control.

[1] = antiviral, Table 4, read-out: IC50 (AV)
[2] = Human betaherpesvirus 5, Fibroblast, antiviral, Table 4, read-out: IC50 (AV)
[3] = Human betaherpesvirus 5, Fibroblast, read-out: CMV Antiviral Assay IC50 (AV), Table 12
[4] = read-out: CMV Antiviral Assay IC50 (AV), Table 12

| Compound | % Inh −AV (HCMV; Conc 2.00e+001 uM, Table 4) | % Inh −AV (HCMV; Conc 4.00e+000 uM, Table 4) | % Inh −AV (HCMV; Conc 4.00e+001 uM, Table 4) | melting point [°C] | pIC50 (HCMV; [3]) | further results |
| --- | --- | --- | --- | --- | --- | --- |
| CC(C)(C)[Si](C)(C)c1cc(Cl)c2cccnc2c1O [Example 41, 5-Chloro-7-[(1,1-dimethylethyl)dimethylsilyl]-8-quinolinol] | 86.0% and 76.0% | 65.0% and 70.0% | 99.0% and 76.0% | 107 to 108 |  | % Inh −AV (HCMV; Conc 1.00e+001 uM, Table 4): 92.0%; % Inh −AV (HCMV; Conc 2.00e+000 uM, Table 4): 56.0%; % Inh −AV (HCMV; Conc 5.00e+001 uM, Table 4): 78.0%; % Inh −AV (HCMV; Conc 8.00e+000 uM, Table 4): 78.0%; pIC50 (HCMV; [1]): 5.42 |
| CC(C)[Si](c1cc(Cl)c2cccnc2c1O)(C(C)C)C(C)C [Example 42] | 88.0% and 99.0% | 51.0% and 89.0% | 92.0% and 99.0% | 107 to 108 |  | % Inh −AV (HCMV; Conc 8.00e−001 uM, Table 4): 0.0%; pIC50 (HCMV; [1]): 5.28 |
| CC(C)(C)[Si](c1ccccc1)(c1ccccc1)c1cc(Cl)c2cccnc2c1O [Example 43, 5-Chloro-7-[(1,1,-dimethylethyl)diphenylsilyl]-8-quinolinol] | 90.0% | 77.0% and 88.0% | 85.0% and 81.0% | 133 to 139 |  | % Inh −AV (HCMV; Conc 1.00e+001 uM, Table 4): 99.0%; % Inh −AV (HCMV; Conc 1.25e+000 uM, Table 4): 87.0%; % Inh −AV (HCMV; Conc 2.50e+000 uM, Table 4): 99.0%; % Inh −AV (HCMV; Conc 4.00e−001 uM, Table 4): 50.0%; % Inh −AV (HCMV; Conc 5.00e+000 uM, Table 4): 99.0%; % Inh −AV (HCMV; Conc 8.00e−001 uM, Table 4): 65.0% and 43.0%; pIC50 (HCMV; [1]): 6.92 and 6.36 |
| C[Si](C)(C)c1cc(Cl)c2cccnc2c1O [Example 44, 5-Chloro-7-(trimethylsilyl)-8-quinolinol] |  | 65.0% and 59.0% |  | 109 to 111 |  | pIC50 (HCMV; [2]): 5.57 |
| C[Si](C)(c1ccccc1)c1cc(Cl)c2cccnc2c1O [Example 45, 5-Chloro-7-(dimethylphenylsilyl)-8-quinolinol] | 83.0% | 75.0% | 89.0% | 101 to 103 |  | % Inh −AV (HCMV; Conc 8.00e−001 uM, Table 4): 39.0%; pIC50 (HCMV; [2]): 5.92 |
| N#CCNC(=O)c1ccc2cccnc2c1O [drawing 130] |  |  |  |  |  | pIC50 (HCMV; Human betaherpesvirus 5, Fibroblast, read-out: CMV Antiviral Assay IC50 (AV), Table 7): 5.52 |
| O=C(Nc1nc2ccc(Cl)cc2s1)c1ccc2cccnc2c1O [drawing 325] |  |  |  |  | 4.59 |  |
| Cc1ccc2c(Cl)cc(S(=O)(=O)NCCCN3CCOCC3)c(O)c2n1 [drawing 326] |  |  |  |  | 5.60 | pIC50 (HCMV; [4]): 5.44 |
| Cc1ccc2c(Cl)cc(S(=O)(=O)NCc3ccccn3)c(O)c2n1 [drawing 327] |  |  |  |  | 4.84 | pIC50 (HCMV; [4]): 4.85 and 5.03 |
| Cc1ccc2c(Cl)cc(S(=O)(=O)NCCCCc3ccccc3)c(O)c2n1 [drawing 328] |  |  |  |  | 5.46 |  |
| Cc1ccc2c(Cl)cc(S(=O)(=O)NCCc3ccccn3)c(O)c2n1 [drawing 329] |  |  |  |  | 4.84 |  |
| N#Cc1ccc(NC(=O)c2ccc3cccnc3c2O)cc1 [drawing 331] |  |  |  |  |  | pIC50 (HCMV; Human betaherpesvirus 5, Fibroblast, Table 12, read-out: CMV Antiviral Assay IC50 (AV)): 5.41 |
